Experimental findings from patent publication US20150203498A1, “INHIBITORS OF PHOSPHODIESTERASE 10 ENZYME” (Janssen Pharmaceutica NV, priority 2012, published 2015) are described below.

The structures appear in SMILES notation. Several values for one entry are separate records, joined by “and”; a condition that tells them apart may be missing. Equal entries are not always repeated.

One data set has as its target T1, hPDE10A2 (Homo sapiens, UniProt Q9Y233).
T1 construct: made in house; host or cells: Sf9 insect cells (baculovirus)
Kind of data set: In vitro assay PDE10A, human recombinant enzyme (SPA, 3H-cAMP). It counts as biochemical. To be noted: -log IC50 expressed in mol/L; 60 nM cAMP; read-out: PDE10A2 pIC50 - human enzyme (converted). Here is the method:
(§1) Human or rat recombinant PDE10A (hPDE10A2 or rPDE10A2) was expressed in Sf9 cells using a recombinant hPDE10A or rPDE10A baculovirus construct. Cells were harvested after 48 h of infection and the hPDE10A or rPDE10A protein was purified by metal chelate chromatography on Ni-sepharose 6FF. Tested compounds were dissolved and diluted in 100% DMSO to a concentration 100 fold of the final concentration in the assay. Compound dilutions (0.4 μl) were added in 384 well plates to 20 μl of incubation buffer (50 mM Tris pH 7.8, 8.3 mM MgCl2, 1.7 mM EGTA). 10 μl of hPDE10A or rPDE10A enzyme in incubation buffer was added and the reaction was started by addition of 10 μl substrate to a final concentration of 60 nM cAMP and 0.008 μCi ^3H-cAMP. The reaction was incubated for 60 min. at RT. After incubation, the reaction was stopped with 20 μl of stop solution consisting of 17.8 mg/ml PDE SPA (scintillation proximity assay) beads. After sedimentation of the beads during 30 min. the radioactivity was measured in a Perkin Elmer Topcount scintillation counter and results were expressed as cpm. For blanc values the enzyme was omitted from the reaction and replaced by incubation buffer. Control values were obtained by addition of a final concentration of 1% DMSO instead of compound. A best fit curve was fitted by a minimum sum of squares method to the plot of % of control value substracted with blanc value versus compound concentration and the half maximal inhibitory concentration (IC50) value was derived from this curve.

The target of the next data set is T2, rPDE10A2 (Rattus norvegicus, UniProt Q9QYJ6).
T2 construct: made in house; host or cells: Sf9 insect cells (baculovirus)
T2 sequence (Q9QYJ6 1-794): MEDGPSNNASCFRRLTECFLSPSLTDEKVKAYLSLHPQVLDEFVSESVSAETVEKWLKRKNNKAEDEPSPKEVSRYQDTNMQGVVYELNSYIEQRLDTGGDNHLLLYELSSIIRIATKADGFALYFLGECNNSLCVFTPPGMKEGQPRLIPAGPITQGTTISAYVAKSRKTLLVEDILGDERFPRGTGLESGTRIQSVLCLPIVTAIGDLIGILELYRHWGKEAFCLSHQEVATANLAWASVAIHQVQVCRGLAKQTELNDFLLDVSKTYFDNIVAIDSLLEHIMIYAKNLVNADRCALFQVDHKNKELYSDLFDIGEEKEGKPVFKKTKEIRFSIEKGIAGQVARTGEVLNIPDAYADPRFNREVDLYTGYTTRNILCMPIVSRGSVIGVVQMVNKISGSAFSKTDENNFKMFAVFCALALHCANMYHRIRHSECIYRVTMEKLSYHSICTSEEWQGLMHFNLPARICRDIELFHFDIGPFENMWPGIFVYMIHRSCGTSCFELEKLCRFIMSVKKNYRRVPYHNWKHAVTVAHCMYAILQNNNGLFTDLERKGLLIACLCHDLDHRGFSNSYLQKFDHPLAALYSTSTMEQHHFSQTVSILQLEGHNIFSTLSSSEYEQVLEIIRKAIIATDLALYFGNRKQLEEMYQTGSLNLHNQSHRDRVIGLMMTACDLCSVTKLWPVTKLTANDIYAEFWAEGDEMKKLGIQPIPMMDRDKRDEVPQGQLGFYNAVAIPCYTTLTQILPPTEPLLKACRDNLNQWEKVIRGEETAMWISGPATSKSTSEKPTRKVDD
Kind of data set: In vitro assay PDE10A, rat recombinant enzyme (SPA, 3H-cAMP). It counts as biochemical. The settings on record: -log IC50 expressed in mol/L; 60 nM cAMP; read-out: PDE10A2 pIC50 - rat enzyme (converted). The protocol:
as §1

Data set [1] relates to apomorphine-induced stereotypy. The experiment in a line: Apomorphine-induced stereotypy in rats (APO). It counts as in vivo, rat. The settings on record: apomorphine 1.0 mg/kg i.v.; for ED50: Rattus norvegicus. The protocol: Apomorphine (1.0 mg/kg, i.v.)-induced stereotypy (compulsive sniffing, licking, chewing) was scored every 5 min. over the first hour after injection of apomorphine, following a 1 hour interval pre-treatment with the test compound. The score system was: (3) pronounced, (2) moderate, (1) slight, and (0) absent. Criteria for drug-induced inhibition of stereotypy: fewer than 6 scores of 3 (0.16% false positives), fewer than 6 scores of 2 (0.0% false positives), or fewer than 7 scores of 1 (0.81% false positives).

The next data set relates to plasma proteins. The experiment in a line: Plasma protein binding by equilibrium dialysis. It counts as in vitro ADME, human. To be noted: human plasma; for Free fraction, Average per subject: average of duplicate per subject; for Free fraction: single determinations, subjects 1-3 in duplicate, equilibrium dialysis 4 h, 37° C. The protocol: The plasma protein binding and blood distribution was investigated in healthy human subjects. Fresh blood was collected and centrifugated (approximately 1700 g for 10 min, room temperature, Hettich Rotixa AP centrifuge). The experiment was started within 4 hours after blood collection.
Individual blank plasma samples from three healthy male subjects, tested in duplicate, were fortified with compound la or compound lb at different concentrations (see Table 5). Plasma samples were spiked with 10 μl spike solution per ml of sample (1% ethanol (v/v)).
Fortified plasma was subjected to equilibrium dialysis (ED), for 4 h against a 0.067 M phosphate buffer, pH 7.17 at 37° C. in a Dianorm system with identical macro-1 Teflon cells and Spectra/Por® RC 2 dialysis membranes (MW cut-off 12-14 kDa). After dialysis, the contents of the two compartments of the dialysis cells were collected separately. The buffer samples were diluted with 1 mL of 5% Bovine Serum Albumin in a Phosphate buffer 0.05M, pH 7.5.
The plasma samples (before and after equilibrium dialysis) and buffer samples were analysed for compound la or compound lb using a qualified chiral LC-MS/MS assay on a API4000 mass spectrometer (Applied Biosystems).
The fraction of the unbound test compound (fu) was calculated as the ratio of the unbound concentration (Cu) in the buffer compartment to the total concentration (CED) in the protein compartment of the dialysis cells. The percentage of the free test compound was calculated as […]
In general terms: In equilibrium dialysis free small molecules cross a membrane that holds back macromolecules.

Data set [2] is described as follows: Pharmacokinetics of oral microdose in healthy subjects. It counts as in vivo, human. To be noted: single oral dose of 100 μg. The text has this:
The pharmacokinetics of an oral microdose of compound 1 according to the invention and compound 1 of WO2011/051342 was studied by a single-dose, open-label, parallel-group, randomized pharmacokinetic (PK) study. Each treatment group consisted of 6 subjects (healthy men between 18 to 55 years with a body mass index (BMI) between 18 and 30 kg/m^2 (inclusive) and body weight not less than 50 kg). Subjects were randomized to receive either compound 1 of WO2011/051342 or compound 1 (according to the invention) treatment.
Compound 1 of WO2011/051342 and compound 1 according to the invention were supplied as a 0.1 mg/mL oral solution containing HP-β-CD and citric acid in purified water. The pH of the solution was adjusted to pH 2.0 by the use of hydrochloric acid. Subjects were admitted to the investigational site on Day -1. Following an overnight fast of at least 10 hours, subjects received a single oral aqueous solution of […] of compound 1 of WO2011/051342 or compound 1 according to the invention, with 240 mL of noncarbonated water as per randomization in the morning of Day 1 between 7:00 AM and 10:30 AM. Drinks were not allowed from 1 hour prior until 1 hour after drug administration. Blood samples were collected at specified time points to measure compound 1 of WO2011/051342 or compound 1 (according to the invention) plasma concentrations. Subjects were discharged on Day 3 after collecting the 48-hour PK sample. Subjects returned to the clinical unit on the morning of Day 4 for the 72-hour PK blood sampling.
Venous blood samples of 6 mL for the measurement of compound 1 of WO2011/051342 or compound 1 according to the invention plasma concentrations were collected at specified time points.
Plasma samples were analyzed to determine concentrations of compound 1 of WO2011/051342 or compound 1 according to the invention using a qualified liquid chromatography/mass spectrometry/mass spectrometry (LC-MS/MS) method.
Pharmacokinetic analyses were performed for all subjects' data who received a dose of compound 1 of WO2011/051342 and compound 1 according to the invention. Plasma concentrations versus time profiles were plotted for each subject. Mean concentration versus time profiles were plotted for each compound, based on planned blood sampling times. Descriptive statistics, including arithmetic mean, standard deviation, CV, geometric mean, median, minimum, and maximum were calculated for the plasma concentrations at each sampling time and for all PK parameters of compound 1 of WO2011/051342 and compound 1 according to the invention.

[3] abbreviates: iv, 1 hour pre-treatment with test compound, dose at which 50% of animals show the effect.
Where [4] appears, read: male, human, plasma, 100 ug, fasted, mean.

T1 sequence (Q9Y233 267-1055): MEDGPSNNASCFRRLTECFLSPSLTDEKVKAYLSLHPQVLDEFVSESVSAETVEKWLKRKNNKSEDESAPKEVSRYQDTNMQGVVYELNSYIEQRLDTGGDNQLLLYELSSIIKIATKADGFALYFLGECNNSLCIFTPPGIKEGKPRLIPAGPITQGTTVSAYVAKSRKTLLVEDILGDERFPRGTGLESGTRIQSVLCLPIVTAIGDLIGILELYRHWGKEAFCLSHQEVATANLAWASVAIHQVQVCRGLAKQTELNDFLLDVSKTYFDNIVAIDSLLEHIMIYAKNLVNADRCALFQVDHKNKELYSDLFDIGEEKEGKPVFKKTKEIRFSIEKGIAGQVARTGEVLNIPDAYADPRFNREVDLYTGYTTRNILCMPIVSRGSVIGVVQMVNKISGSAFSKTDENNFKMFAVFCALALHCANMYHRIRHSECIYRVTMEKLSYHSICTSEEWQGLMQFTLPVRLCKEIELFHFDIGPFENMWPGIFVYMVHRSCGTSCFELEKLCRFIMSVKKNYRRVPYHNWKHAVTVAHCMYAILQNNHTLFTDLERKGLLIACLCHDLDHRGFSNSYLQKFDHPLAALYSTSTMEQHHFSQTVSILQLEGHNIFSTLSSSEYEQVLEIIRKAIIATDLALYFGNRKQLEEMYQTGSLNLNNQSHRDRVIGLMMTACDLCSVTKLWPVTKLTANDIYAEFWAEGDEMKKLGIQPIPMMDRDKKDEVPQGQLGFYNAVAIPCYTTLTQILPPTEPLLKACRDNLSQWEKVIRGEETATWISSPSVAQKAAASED

For `COCC(O)c1ccc(-c2c(C)nc3c(N4CCOCC4)ccnn23)cn1` (single isomer, unassigned) [Compound 1b], the melting point – broadly, the temperature of the solid-liquid transition – was found to be 135.7 °C. Also, the IC50 at hPDE10A2 was 60.3 nM. Moreover, at rPDE10A2, the IC50 was 50.1 nM. In addition, the “APO ED50” value in data set [1] (1 hour pre-treatment with test compound, dose at which 50% of animals show the effect) was found to be 1.2 mg/kg. In the data set on plasma proteins (0.1 μg/ml), the “Average percentage of free compound in plasma” value stood at 53.4%; the “Free fraction, Average per subject” value was 54.0% and 56.3% and 50.0%; the Free fraction is 55.2% and 57.4% and 46.9% and 53.1% and 54.9%. Also, in the data set on plasma proteins (13 μg/ml), the “Average percentage of free compound in plasma” value is listed as 50.9%; the “Free fraction, Average per subject” value is 52.6% and 49.6% and 50.5%; the Free fraction is 52.7% and 46.6% and 51.4% and 49.7% and 51.9% and 53.3%. Further, the “Free fraction, Average (S.D.) (n = 12)” value in the data set on plasma proteins (0.1 and 13 μg/ml pooled, three subjects in duplicate) is given as 52.2 (3.2) %. In the data set on plasma proteins (within the concentration range tested), the “Concentration dependency in the plasma protein binding” value is listed as “No relevant concentration dependency”.

In turn, `Cc1nc2c(N3CCOCC3)nccn2c1-c1ccc(C2(O)CCOCC2)nc1` [Compound 4, 4-[5-(2-Methyl-8-morpholin-4-ylimidazo[1,2-a]pyrazin-3-yl)pyridin-2-yl]tetrahydro-2H-pyran-4-ol] had a melting point of 181.6 °C. For the same compound, the IC50 on hPDE10A2 was 112 nM. In addition, in data set [1] (setting [3]), the ED50 – broadly, the dose that gives a 50% effect, or the effect in half of the subjects – is 0.31 mg/kg.

`COCC(O)c1ccc(-c2c(C)nc3c(N4CCOCC4)nccn23)cn1` (centres unmarked) [Compound 2, 2-Methoxy-1-[5-(2-methyl-8-morpholin-4-ylimidazo[1,2-a]pyrazin-3-yl)pyridin-2-yl]ethanol] registered a melting point of 106.9 °C. The IC50 on hPDE10A2 is 263 nM. In data set [1] (setting [3]), the ED50 came to 0.31 mg/kg.

As for `Cc1nc2c(N3CCOCC3)ccnn2c1-c1ccc(C2(O)CCOCC2)nc1` [Compound 3, 4-[5-(2-Methyl-8-morpholin-4-ylimidazo[1,2-b]pyridazin-3-yl)pyridin-2-yl]tetrahydro-2H-pyran-4-ol], the melting point amounted to 189.2 °C. In addition, at hPDE10A2, the IC50 is 27.5 nM. The ED50 in data set [1] (setting [3]) came to 0.31 mg/kg.

On to `COCC(O)c1ccc(-c2c(C)nc3c(N4CCOCC4)ccnn23)cn1` (centres unmarked) [Compound 1, 2-Methoxy-1-[5-(2-methyl-8-morpholin-4-ylimidazo[1,2-b]pyridazin-3-yl)pyridin-2-yl]ethanol], for which the melting point stood at 137.2 °C. For the same compound, the IC50 on hPDE10A2 was 64.6 nM. In addition, the IC50 on rPDE10A2 was 55 nM. Also, the ED50 in data set [1] (compound dosed orally, 1 hour pre-treatment) turned out to be 1 mg/kg. For the same compound, in data set [2] (male, human, plasma, 100 ug, fasted, Median (Min-Max)), the Tmax (usually the time from dosing to the highest level) is 0.64 h. Moreover, in data set [2] (setting [4]), the area under the curve AUC(0-inf) (in general, total exposure, with the tail of the curve extrapolated) was 2.64 ng·h/mL; the AUC(0-t) – broadly, the area under the concentration-time curve up to a stated or last time point – was found to be 2.61 ng·h/mL; the highest level (Cmax) was 0.758 ng/mL; the Vd/F (commonly the volume of distribution divided by bioavailability) came out at 333 ± 117 L. Further, the half-life (in general, the time needed for the level to fall by half in the phase considered) in data set [2] (setting [4]) is 5.7 h. Further, in data set [2], the “Cl/F, fold lower compared to compound 1 of WO2011/051342” value is given as “approximately 3.8 fold” and the “Vd/F, fold lower compared to compound 1 of WO2011/051342” value is given as “approximately 3.5 fold”. In data set [2] (fasted, mean), the CL/F (usually clearance divided by bioavailability, as obtained after extravascular dosing) was 47.9 ± 24.6 L/h and 47.9 L/h; the λz stood at 0.148 h⁻¹.
